Our source for the EC50 and Emax values is patent US20230265151A1, “GIP/GLP1 CO-AGONIST COMPOUNDS” (priority 2020, published 2023).

Read-outs that look alike come from different tables or passages of the source.

Common to all, as to assay type: cell-based
The target in one experiment is T1, hGCGR (Homo sapiens, UniProt P47871).
T1 construct: expressed in transfected cells
In words: Functional cAMP formation (HTRF) in HEK-293 clonal cells expressing hGCGR, 0.1% bovine casein, without or with 1.0% human serum albumin. In outline: (§1)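 Readings of the HTRF 665/620 nm ratio, which falls as cAMP rises, were converted to nM cAMP using a standard curve after 30 min peptide exposure at 37° C.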
On the technique in general: Changes in cAMP serve as a functional read-out for many G protein-coupled receptors.

Another experiment addresses hGLP-1R (Homo sapiens, UniProt P43220). Nature of the experiment: Functional cAMP formation (HTRF) in HEK-293 clonal cells expressing hGLP-1R, 0.1% bovine casein, without or with 1.0% human serum albumin. Also noted: expressed in transfected cells. In outline:
as §1

The target of a further experiment is T2, hGIPR (Homo sapiens, UniProt P48546).
T2 construct: expressed in transfected cells
T2 sequence (P48546 22-466): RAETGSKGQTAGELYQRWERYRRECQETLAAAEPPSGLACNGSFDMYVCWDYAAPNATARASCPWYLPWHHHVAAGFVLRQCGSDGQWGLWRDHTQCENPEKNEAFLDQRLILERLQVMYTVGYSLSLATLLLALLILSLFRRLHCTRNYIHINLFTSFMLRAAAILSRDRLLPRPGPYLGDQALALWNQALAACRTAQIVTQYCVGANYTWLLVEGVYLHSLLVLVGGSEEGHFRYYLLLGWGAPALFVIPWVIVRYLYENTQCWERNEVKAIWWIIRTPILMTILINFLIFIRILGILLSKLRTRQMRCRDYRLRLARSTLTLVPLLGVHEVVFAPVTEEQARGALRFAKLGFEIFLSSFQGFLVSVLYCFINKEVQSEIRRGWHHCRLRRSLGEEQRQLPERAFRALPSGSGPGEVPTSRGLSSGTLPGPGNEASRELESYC
In words: Functional cAMP formation (HTRF) in HEK-293 clonal cells expressing hGIPR, 0.1% bovine casein, without or with 1.0% human serum albumin. The conditions noted are these: for EC50: cAMP. Summed up:
as §1

Chain of hGLP-1R (P43220 24-463): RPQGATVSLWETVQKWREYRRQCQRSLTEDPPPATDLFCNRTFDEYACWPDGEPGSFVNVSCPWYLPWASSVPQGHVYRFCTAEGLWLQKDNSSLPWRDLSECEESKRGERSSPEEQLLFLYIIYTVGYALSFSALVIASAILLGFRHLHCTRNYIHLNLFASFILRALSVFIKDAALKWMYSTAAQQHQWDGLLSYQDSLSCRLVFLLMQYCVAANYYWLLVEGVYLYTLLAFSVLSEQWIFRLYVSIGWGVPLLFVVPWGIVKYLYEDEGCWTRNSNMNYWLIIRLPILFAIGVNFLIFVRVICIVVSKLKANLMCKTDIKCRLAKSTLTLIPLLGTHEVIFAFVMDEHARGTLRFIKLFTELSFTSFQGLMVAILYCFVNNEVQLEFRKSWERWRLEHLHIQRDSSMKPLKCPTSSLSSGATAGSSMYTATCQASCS
T1 sequence (P47871 26-477): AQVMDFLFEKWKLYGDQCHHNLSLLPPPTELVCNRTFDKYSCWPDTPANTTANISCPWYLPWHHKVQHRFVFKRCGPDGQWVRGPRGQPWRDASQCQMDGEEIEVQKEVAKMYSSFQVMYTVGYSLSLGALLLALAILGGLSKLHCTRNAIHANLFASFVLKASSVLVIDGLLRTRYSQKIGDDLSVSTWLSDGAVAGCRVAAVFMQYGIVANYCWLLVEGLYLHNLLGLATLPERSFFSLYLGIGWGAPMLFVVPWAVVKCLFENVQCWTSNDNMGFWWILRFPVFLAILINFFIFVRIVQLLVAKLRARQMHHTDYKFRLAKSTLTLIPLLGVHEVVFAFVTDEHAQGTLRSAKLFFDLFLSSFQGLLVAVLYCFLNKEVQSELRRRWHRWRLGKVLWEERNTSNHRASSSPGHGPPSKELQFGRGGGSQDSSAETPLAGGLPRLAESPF

Take `CC[C@H](C)[C@H](NC(=O)[C@H](CC(C)C)NC(=O)[C@](C)(Cc1ccc(O)cc1)NC(=O)[C@@H](CCC(=O)O)NC(=O)[C@@H](NC(=O)[C@H](Cc1ccccc1)NC(=O)[C@H](CCC(=O)O)NC(=O)C(C)(C)NC(=O)[C@H](CCC(N)=O)NC(=O)[C@H](C)NC(=O)[C@H](CCCCNC(=O)COCCOCCNC(=O)COCCOCCNC(=O)CC[C@H](NC(=O)CCCCCCCCCOc1ccc(C(=O)O)cc1)C(=O)O)NC(=O)[C@H](CCCN)NC(=O)[C@H](CC(=O)O)NC(=O)[C@H](CC(C)C)NC(=O)[C@](C)(CC(C)C)NC(=O)[C@@H](NC(=O)C(C)(C)NC(=O)[C@H](Cc1ccncc1)NC(=O)[C@H](CC(=O)O)NC(=O)[C@H](CO)NC(=O)[C@@H](NC(=O)[C@](C)(Cc1ccccc1F)NC(=O)[C@@H](NC(=O)CNC(=O)[C@H](CCC(=O)O)NC(=O)C(C)(C)NC(=O)[C@@H](N)Cc1ccc(O)cc1)[C@@H](C)O)[C@@H](C)O)[C@@H](C)CC)[C@@H](C)CC)C(=O)N[C@@H](CCC(=O)O)C(=O)NCC(=O)NCC(=O)N1CCC[C@H]1C(=O)N[C@@H](CO)C(=O)N[C@@H](CO)C(=O)NCC(=O)N[C@@H](C)C(=O)N1CCC[C@H]1C(=O)N1CCC[C@H]1C(=O)N1CCC[C@H]1C(=O)N[C@@H](CO)C(=O)N[C@@H](CCCCNC(=O)COCCOCCNC(=O)COCCOCCNC(=O)CC[C@H](NC(=O)CCCCCCCCCOc1ccc(C(=O)O)cc1)C(=O)O)C(N)=O` [Example 245]: the EC50 on hGCGR (hGCGR EC50, nM (SEM, n), 0.1% bovine casein and 1.0% human serum albumin, 37° C., geometric mean) is over 9950 nM; on hGCGR (hGCGR EC50, nM (SEM, n), cAMP, incubated at 37° C., 0.1% bovine casein (no human serum albumin), geometric mean), over 9950 nM; at hGLP-1R (hGLP-1R EC50, nM (SEM, n), 0.1% bovine casein and 1.0% human serum albumin, 37° C., geometric mean), 27 nM; on hGLP-1R (hGLP-1R EC50, nM (SEM, n), cAMP, incubated at 37° C., 0.1% bovine casein (no human serum albumin), geometric mean), 1.88 nM; on hGIPR (hGIPR EC50, nM (SEM, n), incubated at 37° C., 0.1% bovine casein (no human serum albumin), geometric mean), 0.0195 nM. The Emax came out at 93.8% on hGLP-1R (HEK293, read-out: hGLP-1R Emax, % ± SEM, 0.1% bovine casein and 1.0% human serum albumin, 37° C., percent of maximal response to GLP-1(7-36)NH2); 88.9% at hGLP-1R (HEK293, read-out: hGLP-1R Emax, % ± SEM, percent of maximal response to GLP-1(7-36)NH2, 37° C., 0.1% bovine casein, arithmetic mean); 81.9% at hGIPR (HEK293, read-out: hGIPR Emax, % ± SEM, 0.1% bovine casein and 1.0% human serum albumin, 37° C., percent of maximal response to GIP(1-42)NH2); 96.7% at hGIPR (HEK293, read-out: hGIPR Emax, % ± SEM, percent of maximal response to GIP(1-42)NH2, 37° C., 0.1% bovine casein, arithmetic mean).
Turning to `CC[C@H](C)[C@H](NC(=O)[C@H](CCCN)NC(=O)[C@H](CC(=O)O)NC(=O)[C@H](CC(C)C)NC(=O)[C@](C)(CC(C)C)NC(=O)[C@@H](NC(=O)C(C)(C)NC(=O)[C@H](Cc1ccc(O)cc1)NC(=O)[C@H](CC(=O)O)NC(=O)[C@H](CO)NC(=O)[C@@H](NC(=O)[C@](C)(Cc1ccccc1F)NC(=O)[C@@H](NC(=O)CNC(=O)[C@H](CCC(=O)O)NC(=O)C(C)(C)NC(=O)[C@@H](N)Cc1ccc(O)cc1)[C@@H](C)O)[C@@H](C)O)[C@@H](C)CC)C(=O)N[C@@H](C)C(=O)N[C@@H](CCC(N)=O)C(=O)NC(C)(C)C(=O)N[C@@H](CCCN)C(=O)N[C@@H](Cc1ccccc1)C(=O)N[C@H](C(=O)N[C@@H](CCCCNC(=O)COCCOCCNC(=O)COCCOCCNC(=O)CC[C@H](NC(=O)CCCCCCCCCOc1ccc(C(=O)O)cc1)C(=O)O)C(=O)N[C@@](C)(Cc1ccc(O)cc1)C(=O)N[C@@H](CC(C)C)C(=O)N[C@H](C(=O)N[C@@H](CCCCNC(=O)COCCOCCNC(=O)COCCOCCNC(=O)CC[C@H](NC(=O)CCCCCCCCCOc1ccc(C(=O)O)cc1)C(=O)O)C(=O)NCC(=O)NCC(=O)N1CCC[C@H]1C(=O)N[C@@H](CO)C(=O)N[C@@H](CO)C(=O)NCC(=O)N[C@@H](C)C(=O)N1CCC[C@H]1C(=O)N1CCC[C@H]1C(=O)N1CCC[C@H]1C(=O)N[C@@H](CO)C(N)=O)[C@@H](C)CC)[C@@H](C)CC` [Example 355], the EC50 on hGCGR (hGCGR EC50, nM (SEM, n), cAMP, 37° C., 0.1% bovine casein (no human serum albumin), geometric mean) is over 9950 nM; at hGCGR (hGCGR EC50, nM (SEM, n), cAMP, 37° C., 0.1% bovine casein and 1.0% human serum albumin, geometric mean (SEM, n)) it was over 9950 nM; on hGLP-1R (hGLP-1R EC50, nM (SEM, n), cAMP, 37° C., 0.1% bovine casein (no human serum albumin), geometric mean), 0.574 nM; at hGLP-1R (hGLP-1R EC50, nM (SEM, n), cAMP, 37° C., 0.1% bovine casein and 1.0% human serum albumin, geometric mean (SEM, n)), 11.3 nM; on hGIPR (hGIPR EC50, nM (SEM, n), 37° C., 0.1% bovine casein (no human serum albumin), geometric mean) it was 0.0365 nM; at hGIPR (hGIPR EC50, nM (SEM, n), 37° C., 0.1% bovine casein and 1.0% human serum albumin, geometric mean (SEM, n)), 1.81 nM. Besides, the Emax at hGLP-1R (HEK293, read-out: hGLP-1R Emax, % ± SEM, cAMP, 37° C., 0.1% bovine casein and 1.0% human serum albumin, percent of maximal response to GLP-1(7-36)NH2) is 109%; on hGLP-1R (HEK293, read-out: hGLP-1R Emax, % ± SEM, cAMP, 37° C., 0.1% bovine casein, percent of maximal response to GLP-1(7-36)NH2, arithmetic mean), 105%; on hGIPR (HEK293, read-out: hGIPR Emax, % ± SEM, cAMP, 37° C., 0.1% bovine casein and 1.0% human serum albumin, percent of maximal response to GIP(1-42)NH2), 86%.
In the case of `CC[C@H](C)[C@H](NC(=O)[C@H](CC(C)C)NC(=O)[C@](C)(Cc1ccc(O)cc1)NC(=O)[C@@H](CCC(=O)O)NC(=O)[C@@H](NC(=O)[C@H](Cc1ccccc1)NC(=O)[C@H](CCC(=O)O)NC(=O)C(C)(C)NC(=O)[C@H](CCC(N)=O)NC(=O)[C@H](C)NC(=O)[C@H](CCCCNC(=O)COCCOCCNC(=O)COCCOCCNC(=O)CC[C@H](NC(=O)CCCCCCCCCCCCC(=O)O)C(=O)O)NC(=O)[C@H](CCCN)NC(=O)[C@H](CC(=O)O)NC(=O)[C@H](CC(C)C)NC(=O)[C@](C)(CC(C)C)NC(=O)[C@@H](NC(=O)[C@H](CO)NC(=O)[C@H](Cc1cccs1)NC(=O)[C@H](CC(=O)O)NC(=O)[C@H](CO)NC(=O)[C@@H](NC(=O)[C@](C)(Cc1ccccc1F)NC(=O)[C@@H](NC(=O)CNC(=O)[C@H](CCC(=O)O)NC(=O)C(C)(C)NC(=O)[C@@H](N)Cc1ccc(O)cc1)[C@@H](C)O)[C@@H](C)O)[C@@H](C)CC)[C@@H](C)CC)C(=O)N[C@@H](CCC(=O)O)C(=O)NCC(=O)NCC(=O)N[C@@H](CCCCNC(=O)COCCOCCNC(=O)COCCOCCNC(=O)CC[C@H](NC(=O)CCCCCCCCCCCCC(=O)O)C(=O)O)C(=O)N[C@@H](CO)C(=O)N[C@@H](CO)C(=O)NCC(=O)N[C@@H](C)C(=O)N1CCC[C@H]1C(=O)N1CCC[C@H]1C(=O)N1CCC[C@H]1C(=O)N[C@@H](CO)C(N)=O` [Example 145], the EC50 on hGCGR (cAMP, incubated at 37° C., 0.1% bovine casein (no human serum albumin), geometric mean, read-out: hGCGR EC50, nM (SEM, n)) is over 9950 nM; at hGLP-1R (cAMP, incubated at 37° C., 0.1% bovine casein (no human serum albumin), geometric mean, read-out: hGLP-1R EC50, nM (SEM, n)), 0.555 nM; at hGIPR (incubated at 37° C., 0.1% bovine casein (no human serum albumin), geometric mean, read-out: hGIPR EC50, nM (SEM, n)), 0.0286 nM. The Emax on hGLP-1R (HEK293, percent of maximal response to GLP-1(7-36)NH2, 37° C., 0.1% bovine casein, arithmetic mean, read-out: hGLP-1R Emax, % ± SEM) amounted to 95.1%; on hGIPR (HEK293, percent of maximal response to GIP(1-42)NH2, 37° C., 0.1% bovine casein, arithmetic mean, read-out: hGIPR Emax, % ± SEM) it was 74.8%.

As a reminder, the EC50 is the concentration that produces a half-maximal response. For orientation: Emax means the size of the effect at its maximum, as opposed to the concentration needed.
